Experimental data published in PubChem BioAssay (NCI).
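Cultured in 96-well plates, cells were exposed to test compound for 48 hours across five concentrations. At the TGI there is no net growth.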

tested on: UACC-257 melanoma; assay: inhibition of tumour cell growth, NCI panel, 48 h

Going from `O=c1oc2ccc3ccccc3c2cc1-c1nc2ccccc2s1` to `Brc1ccc2[nH]cc(-c3csc(-c4c[nH]c5ccccc45)n3)c2c1`, the TGI falls from > 100 µM to 17.8 µM.

`COC[C@@H](N=CC(C)(C)C)C(C)C` and `CC(C)(C)OC(=O)NC1CCCCC1NC(=O)C(=O)NC1CCCCC1NC(=O)OC(C)(C)C` (configuration not stated) cannot be ordered by TGI: > 100 µM for the first, > 100 µM for the second.

`COc1cc(OC)c2nc(C)c(CCCl)c(Cl)c2c1` and `COc1cc(OC)cc(Oc2nc3ccccc3nc2C(F)(F)F)c1` cannot be ordered by TGI: > 100 µM for the first, > 100 µM for the second.

Going from `COc1cc(C2c3cc4c(cc3OC(N3CCCCC3)C2C)OCO4)cc(OC)c1O` (configuration not stated) to `CCOC(=O)CCC(NC(=O)Cc1ccc(Nc2nc3cc(F)c(F)cc3nc2C(=O)OCC)cc1)C(=O)OCC` (configuration not stated), the TGI rises from 41.9 µM to > 100 µM.

`O=C(/C=C/c1ccccc1)CCC1C(=O)c2ccccc2C1=O` and `[N-]=[N+]=Nc1c([N+](=O)[O-])c(=O)n(-c2ccccc2)c2ccccc12` cannot be ordered by TGI: > 100 µM for the first, > 100 µM for the second.

In the case of `O=[N+]([O-])c1ccc2[nH]c(=S)[nH]c(=S)c2c1`, the TGI is reported as > 100 µM.

tested on: NCI-H460 lung; assay: inhibition of tumour cell growth, NCI panel, 48 h

Compared with `O=c1oc2ccc3ccccc3c2cc1-c1nc2ccccc2s1`, `Brc1ccc2[nH]cc(-c3csc(-c4c[nH]c5ccccc45)n3)c2c1` is lower in TGI: > 100 µM for the first, 12.6 µM for the second.

`COC[C@@H](N=CC(C)(C)C)C(C)C` and `CC(C)(C)OC(=O)NC1CCCCC1NC(=O)C(=O)NC1CCCCC1NC(=O)OC(C)(C)C` (configuration not stated) cannot be ordered by TGI: > 100 µM for the first, > 100 µM for the second.

`COc1cc(OC)c2nc(C)c(CCCl)c(Cl)c2c1` and `COc1cc(OC)cc(Oc2nc3ccccc3nc2C(F)(F)F)c1` cannot be ordered by TGI: > 100 µM for the first, > 100 µM for the second.

Going from `COc1cc(C2c3cc4c(cc3OC(N3CCCCC3)C2C)OCO4)cc(OC)c1O` (configuration not stated) to `CCOC(=O)CCC(NC(=O)Cc1ccc(Nc2nc3cc(F)c(F)cc3nc2C(=O)OCC)cc1)C(=O)OCC` (configuration not stated), the TGI rises from 23.3 µM to > 100 µM.

`O=C(/C=C/c1ccccc1)CCC1C(=O)c2ccccc2C1=O` and `[N-]=[N+]=Nc1c([N+](=O)[O-])c(=O)n(-c2ccccc2)c2ccccc12` cannot be ordered by TGI: > 100 µM for the first, > 100 µM for the second.

`O=[N+]([O-])c1ccc2[nH]c(=S)[nH]c(=S)c2c1` was tested, and the TGI was > 100 µM.

tested on: SR leukemia; assay: inhibition of tumour cell growth, NCI panel, 48 h

Compared with `O=c1oc2ccc3ccccc3c2cc1-c1nc2ccccc2s1`, `Brc1ccc2[nH]cc(-c3csc(-c4c[nH]c5ccccc45)n3)c2c1` is lower in TGI: > 21.5 µM for the first, 10.4 µM for the second.

`COC[C@@H](N=CC(C)(C)C)C(C)C` and `CC(C)(C)OC(=O)NC1CCCCC1NC(=O)C(=O)NC1CCCCC1NC(=O)OC(C)(C)C` (configuration not stated) cannot be ordered by TGI: > 100 µM for the first, > 100 µM for the second.

`COc1cc(OC)c2nc(C)c(CCCl)c(Cl)c2c1` and `COc1cc(OC)cc(Oc2nc3ccccc3nc2C(F)(F)F)c1` cannot be ordered by TGI: > 100 µM for the first, > 100 µM for the second.

`COc1cc(C2c3cc4c(cc3OC(N3CCCCC3)C2C)OCO4)cc(OC)c1O` (configuration not stated) and `CCOC(=O)CCC(NC(=O)Cc1ccc(Nc2nc3cc(F)c(F)cc3nc2C(=O)OCC)cc1)C(=O)OCC` (configuration not stated) cannot be ordered by TGI: > 44.5 µM for the first, 55.9 µM for the second.

Compared with `O=C(/C=C/c1ccccc1)CCC1C(=O)c2ccccc2C1=O`, `[N-]=[N+]=Nc1c([N+](=O)[O-])c(=O)n(-c2ccccc2)c2ccccc12` is lower in TGI: > 100 µM for the first, 82.6 µM for the second.

`O=[N+]([O-])c1ccc2[nH]c(=S)[nH]c(=S)c2c1` was tested, and the TGI was > 100 µM.

tested on: LOX IMVI melanoma; assay: inhibition of tumour cell growth, NCI panel, 48 h

First: O=c1oc2ccc3ccccc3c2cc1-c1nc2ccccc2s1
Second: Brc1ccc2[nH]cc(-c3csc(-c4c[nH]c5ccccc45)n3)c2c1
The TGI of the first is higher: > 100 µM for the first, 4.5 µM for the second.

`COC[C@@H](N=CC(C)(C)C)C(C)C` and `CC(C)(C)OC(=O)NC1CCCCC1NC(=O)C(=O)NC1CCCCC1NC(=O)OC(C)(C)C` (configuration not stated) cannot be ordered by TGI: > 100 µM for the first, > 100 µM for the second.

`COc1cc(OC)c2nc(C)c(CCCl)c(Cl)c2c1` and `COc1cc(OC)cc(Oc2nc3ccccc3nc2C(F)(F)F)c1` cannot be ordered by TGI: > 100 µM for the first, > 100 µM for the second.

`COc1cc(C2c3cc4c(cc3OC(N3CCCCC3)C2C)OCO4)cc(OC)c1O` (configuration not stated) and `CCOC(=O)CCC(NC(=O)Cc1ccc(Nc2nc3cc(F)c(F)cc3nc2C(=O)OCC)cc1)C(=O)OCC` (configuration not stated) cannot be ordered by TGI: > 59.8 µM for the first, > 100 µM for the second.

Going from `O=C(/C=C/c1ccccc1)CCC1C(=O)c2ccccc2C1=O` to `[N-]=[N+]=Nc1c([N+](=O)[O-])c(=O)n(-c2ccccc2)c2ccccc12`, the TGI falls from > 100 µM to 43.9 µM.

`O=[N+]([O-])c1ccc2[nH]c(=S)[nH]c(=S)c2c1` was tested, and the TGI was > 100 µM.

tested on: SF-295 CNS; assay: inhibition of tumour cell growth, NCI panel, 48 h

Compared with `O=c1oc2ccc3ccccc3c2cc1-c1nc2ccccc2s1`, `Brc1ccc2[nH]cc(-c3csc(-c4c[nH]c5ccccc45)n3)c2c1` is lower in TGI: > 100 µM for the first, 6.32 µM for the second.

`COC[C@@H](N=CC(C)(C)C)C(C)C` and `CC(C)(C)OC(=O)NC1CCCCC1NC(=O)C(=O)NC1CCCCC1NC(=O)OC(C)(C)C` (configuration not stated) cannot be ordered by TGI: > 100 µM for the first, > 100 µM for the second.

`COc1cc(OC)c2nc(C)c(CCCl)c(Cl)c2c1` and `COc1cc(OC)cc(Oc2nc3ccccc3nc2C(F)(F)F)c1` cannot be ordered by TGI: > 100 µM for the first, > 100 µM for the second.

First: COc1cc(C2c3cc4c(cc3OC(N3CCCCC3)C2C)OCO4)cc(OC)c1O (configuration not stated)
Second: O=C(/C=C/c1ccccc1)CCC1C(=O)c2ccccc2C1=O
The TGI of the first is lower: 13.4 µM for the first, > 100 µM for the second.
